Results from US20140121273A1, “METHOD FOR TREATMENT OF MAGNESIUM AND POTASSIUM DEFICIENCIES” (priority 2005, published 2014).
Like-named read-outs stand apart in the source and are kept apart here.

Assays:
[1] = system: people taking dofetilide or sotalol therapy; assay: 12-lead electrocardiogram intervals, randomized, double blind, placebo-controlled study of oral magnesium L-lactate; assay type: in vivo, human; conditions: for QTc Interval 3 Hour / QTc Interval 51 Hour / QTc Baseline: Bazett's formula; for QTc interval reduction: all magnesium-treated patients on sotalol or dofetilide; for QT interval reduction: magnesium therapy
Method: (§1) A randomized, double blind, placebo-controlled study was performed at Hartford Hospital. People taking dofetilide or sotalol therapy for at least 5 half-lives were eligible for inclusion. […] After enrollment, people who discontinued their sotalol or dofetilide or altered their dosage of these drugs were excluded as well. Thirty-four participants were enrolled in the study. Three were subsequently excluded because the antiarrhythmics they were using were discontinued or the dose of the antiarrhythmics changed during the study. Given the known baseline differences in QTc intervals among men and women, each gender was randomized separately using stratified allocation. Patients completing the study (n=30) were well matched for baseline characteristics, which are reflected in Table 1. Intracellular concentrations of essential elements were available for 19 subjects. Overall 63.2% of patients (regardless of experimental group) had baseline intracellular magnesium concentrations below the normal reference range of 33.9-41.9 mEq/IU with an average level of 32.6±2.2 mEq/IU. All of the other baseline intracellular elements evaluated (phosphorus, chloride, calcium, potassium, and sodium) were within the reference range although the phosphorus was at the top of the range (average=16.7±2.8 mEq/IU with reference range of 14.2-17.0 mEq/IU).
(§2) Participants received three tablets of magnesium L-lactate (Mag-Tab SR®; Niche Pharmaceuticals; Roanoke, Tex.) or matching placebo twice daily (504 mg of elemental magnesium daily) for 48 hours (i.e. t=0, 12 h, 24 h, 36 h, and 48 h). A 12-lead electrocardiogram (ECG) was recorded at 25 mm/sec at rest prior to initiation of treatment (i.e. baseline) and at 3 and 51 hours after the first dose of magnesium (i.e. t=3 h and t=51 h) for each participant. A single blinded investigator read all ECGs using a precision ruler of 0.5 mm scale (Schlaedler-Quinzel, Inc. Parsippany, N.J.).
QT intervals were measured from the onset of the Q wave (or R/S wave if there was no Q wave) to the end of the T wave where it merges with the isoelectric baseline. The beginning and end of the QRS complex were determined by visual inspection, whereas the end of the T-wave was obtained by extrapolating the descending slope of the T-wave to the isoelectric baseline. When au wave interrupts the down sloping of the T-wave, the visible portion of the T wave was extrapolated to the T-P baseline to define the end of the T-wave. The R-R interval was measured from the peak of one R wave to the peak of an adjacent R wave. The QTc interval was corrected for heart rate using Bazett's formula [QTc=QT/(RR)^1/2].
(§3) Continuous data was expressed by a mean±SD. A p value less than 0.05 was considered statistically significant. The primary analysis was the intergroup comparisons of the change in QTc interval from baseline at 3 hours and 51 hours using Bazett's formula. Evaluations of the QRS, QT, and RR intervals were compared between groups at each time period as well. Mann-Whitney tests were used for all statistical analyses of continuous ECG data. Intracellular element intragroup comparisons were performed with a paired t-test. Chi^2 or Fischer's Exact tests were used for categorical comparisons. Statistical analysis was performed using SPSS version 5.

[2] = Intracellular elemental concentrations in sublingual buccal smears (EXAtest, energy-dispersive X-ray analysis), same study; assay type: in vivo, human; conditions: for Intracellular magnesium concentration, Baseline: before study therapy; for Intracellular magnesium concentration, Baseline / Intracellular magnesium concentration, Post-Dosing: buccal cells, magnesium group n = 10, normal reference range 33.9-41.9, mean ± SD; for Intracellular magnesium concentration, Post-Dosing: following the third dose
Method: as §1, §2
Sublingual buccal smears were obtained from a subgroup of participants prior to initiation of study therapy and following the third dose of magnesium using EXAtest™ kits (Intracellular Diagnostics, Inc.; Foster City, Calif.). Samples were analyzed by energy-dispersive X-ray Analysis for intracellular concentrations of magnesium, phosphorus, chloride, calcium, potassium, and sodium. The use of buccal cell smears for intracellular magnesium was performed because it is noninvasive, reproducible, and correlates well (r=0.68, p<0.002) with atrial cell intracellular magnesium.
as §3

[3] = Adverse events in the placebo-controlled study; assay type: in vivo, human; conditions: among the 34 patients in the study; one withdrew (diarrhea 30 minutes after dosing)
Method: as §1, with “Patients completing the study (n=30) were well matched for baseline characteristics, which are reflected in Table 1. Intracellular concentrations of essential elements were available for 19 subjects. Overall 63.2% of patients (regardless of experimental group) had baseline intracellular magnesium concentrations below the normal reference range of 33.9-41.9 mEq/IU with an average level of 32.6±2.2 mEq/IU.” left out
as §2, with “A single blinded investigator read all ECGs using a precision ruler of 0.5 mm scale (Schlaedler-Quinzel, Inc. Parsippany, N.J.).” left out

[4] = oral magnesium salts currently used to treat magnesium deficiencies; cited from earlier work
[5] = system: patients with atrial fibrillation; conditions: oral, two 6-month studies; cited from earlier work
[6] = cited from earlier work
[7] = 3 hours after first dose, 504 mg elemental magnesium daily, oral, n = 14, mean ± SD
[8] = 51 hours after first dose, 504 mg elemental magnesium daily for 48 hours, oral, n = 14, mean ± SD
[9] = baseline, before first dose, magnesium group n = 14, on sotalol or dofetilide, mean ± SD

C[C@H](O)C(=O)[O-].C[C@H](O)C(=O)[O-].[Mg+2] [magnesium L-lactate]
QT Interval 3 Hour [1, 7]: 115300 ± 11100 µM·h | RR Interval 3 Hour [1, 7]: 230400 ± 30860 µM·h | QTc Interval 3 Hour [1, 7]: 121100 ± 17700 µM·h | QTc Interval 3 Hour ([1]; 3 hours after first dose, 504 mg elemental magnesium daily, oral, n = 14, mean ± SD, listed as Magnesium): 121100 ± 17700 µM·h | QRS Interval 3 Hour ([1]; 3 hours after first dose, three tablets twice daily (504 mg elemental magnesium daily), oral, n = 14, mean ± SD): 39890 ± 11600 µM·h | QTc interval reduction ([1]; 3 hours post-dosing): 37 ms | QTc interval reduction from baseline ([1]; 3 hours, group receiving diuretics, mean ± SD): 51.1 ± 42 ms | QT interval reduction ([1]; 3 hours): isms | QTc interval reduction from baseline ([1]; 3 hours, no diuretic group, mean ± SD): 25.5 ± 27.9 ms | QT Interval 51 Hour [1, 8]: 115800 ± 12400 µM·h | RR Interval 51 Hour [1, 8]: 241200 ± 32670 µM·h | QTc Interval 51 Hour [1, 8]: 124800 ± 14300 µM·h | QTc Interval 51 Hour ([1]; 51 hours after first dose, 504 mg elemental magnesium daily for 48 hours, oral, n = 14, mean ± SD, listed as Magnesium): 124800 ± 14300 µM·h | QRS Interval 51 Hour ([1]; 51 hours after first dose, three tablets twice daily for 48 hours (504 mg elemental magnesium daily), oral, n = 14, mean ± SD): 36190 ± 12200 µM·h | QTc interval reduction ([1]; 51 hours): 25 ms | QTc interval reduction from baseline ([1]; 51 hours, group receiving diuretics, mean ± SD): 24.7 ± 24.3 ms | QT interval reduction ([1]; 51 hours): 14 ms | QTc interval reduction from baseline ([1]; 51 hours, no diuretic group, mean ± SD): 26.2 ± 27.4 ms | QTc Baseline [1, 9]: 131200 ± 15000 µM·h | QTc Baseline ([1]; baseline, before first dose, magnesium group n = 14, on sotalol or dofetilide, mean ± SD, listed as Magnesium): 131200 ± 15000 µM·h | QT Interval Baseline [1, 9]: 119600 ± 10600 µM·h | RR Interval Baseline [1, 9]: 235600 ± 45530 µM·h | intracellular magnesium of patients with baseline concentrations below the normal reference range, after magnesium supplementation ([2]; all such patients, normal reference range 33.9-41.9 mEq/IU): achieving a concentration within the normal reference range | Intracellular magnesium concentration, Baseline [2]: 32.6±2.2 mEq/IU | Intracellular magnesium concentration, Baseline ([2]; listed as Magnesium): 32.2 ± 2.2 mEq/IU | Intracellular magnesium concentration, Post-Dosing [2]: 36.2±2.4 mEq/IU | Intracellular magnesium concentration, Post-Dosing ([2]; listed as Magnesium): 36.2 ± 2.4 mEq/IU | effective in repleting intracellular magnesium levels to normal ranges ([2]; normal range defined as a minimum concentration of 33.9 mEq/IU): 100% | patients who experienced loose bowel movements [3]: 2 patients

[Cl-].[Cl-].[Mg+2] [magnesium chloride]
bioavailability [4]: about 20%

[Mg+2].[OH-].[OH-] [magnesium hydroxide]
maintaining sinus rhythm [5]: ineffective at maintaining sinus rhythm

[O]=[Mg] [magnesium oxide]
bioavailability [4]: about 2%

O=S(=O)([O-])[O-].[Mg+2] [magnesium sulfate]
conversion rate ([6]; trial of intravenous magnesium sulfate versus diltiazem, p=0.03): 57% | conversion rate ([6]; trial of intravenous magnesium sulfate versus verapamil, p=0.01): 58%

magnesium gluconate
bioavailability [4]: about 20%
